Activity calls are given as the source filed them.
Legend:
Type in all cases: functional, organism-based
Bacillus cereus = assay: Antimicrobial activity against Bacillus cereus at 100 ug/disk
Bacillus subtilis = assay: Antimicrobial activity against Bacillus subtilis at 100 ug/disk
Saccharomyces cerevisiae = assay: Antimicrobial activity against Saccharomyces cerevisiae at 100 ug/disk

Measured: Activity

CC1(C)C[C@H]2[C@H](O)[C@]3(O)CO[C@]4(O)[C@@H](O)[C@@](C)([C@H]34)[C@H]2C1
inactive: all assays above

Source: ChEMBL document CHEMBL1157984, “Tsugicoline E, a new polyoxygenated protoilludane sesquiterpene from the fungus laurilia tsugicola1” (J Nat Prod, 1999)
